Each structure is given as a SMILES string.

The assay has as its system Plasmodium falciparum. Put plainly: GSK_TCMDC: Inhibition of Plasmodium falciparum 3D7 in whole erythrocytes, using parasite LDH activity as an index of growth. The format is functional, organism-based. As to conditions: Plasmodium falciparum, 3D7.
Regarding `CN(Cc1ccc(-c2ccc(C(F)(F)F)cc2)cc1)C(=O)Cn1c(CCc2cccc(F)c2F)nc(=O)c2ccc(N3CCN(CCN4CCCCC4)CC3)nc21`, the XC50 stood at 764 nM.

In turn, `O=C(Cn1c(CCc2cccc(F)c2F)nc(=O)c2ccccc21)N(CCN1CCCC1)Cc1ccc(-c2ccc(C(F)(F)F)cc2)cc1` yielded an XC50 of 711 nM.

On to `CCN(CCCN1CCCCC1)c1cc(C)nc(Nc2cc(Br)ccc2C)n1`, for which the XC50 is 405 nM.

As for `O=c1nc(NCCCNCc2cc3c(Cl)cc(Cl)cc3[nH]2)[nH]c2ccsc12`, the XC50 amounted to 1120 nM.

As to `COc1ccc2nccc([C@@H](O)CN3CCC(NCc4cc5ccc(C#N)cc5[nH]4)CC3)c2c1`, the XC50 was determined as 95 nM.

In the case of `c1cc(CN2CCC(CCN3CCCCC3)CC2)cc(-c2csc(-c3nc4ccccc4[nH]3)c2)c1`, the XC50 amounted to 142 nM.

`CCc1c(CCNCCCCCNCCc2ccc(OC)c(OC)c2CC)ccc(OC)c1OC` had an XC50 of 1110 nM.

In the case of `COc1ccc(/C=C/C(=O)N2CCc3cc4nccc(N5CCN6CCC[C@H]6C5)c4cc32)cc1`, the XC50 stood at 642 nM.

`Cc1ccccc1C(=O)Nc1cccc(-c2nc3ncccn3c2C)c1` returned an XC50 of 765 nM.

The compound `CC(C)CN1C(=O)c2ccc(C(=O)Nc3nccs3)cc2C1=O` showed an XC50 of 971 nM.

On to `Cc1cc(C(F)(F)F)nn1-c1ccc(NC(=O)c2ccco2)cc1`, for which the XC50 is 734 nM.

In the case of `O=C(Nc1ccccc1)OCCOc1ccc(CC2SC(=O)NC2=O)cc1` (stereo unspecified), the XC50 was 371 nM.

Compound `C/N=C(/Nc1c(Cl)cccc1Cl)N(C)C` displayed an XC50 of 820 nM.

In the case of `Cc1cc(-c2ccc3c(c2)CCN(CCC2CCC(NC(=O)/C=C/c4cccc(F)c4)CC2)CC3)on1` (stereo unspecified), the XC50 is 746 nM.

In turn, `COc1ccc(CN2C(=S)N(Cc3ccccc3)C(=O)C2CC(=O)Nc2ccccc2)cc1OC` (stereo unspecified) showed an XC50 of 844 nM.

For `OCCNc1nc(Nc2cccc(O)c2)nc2ccccc12`, the XC50 stood at 389 nM.

`N=C(N)NN=Cc1c[nH]c2ccc(-c3ccccc3)cc12` had an XC50 of 528 nM.

For the compound `O=S(=O)(NCCN1CCCC1)c1ccc(-c2cccc(CNC3Cc4ccccc4C3)c2)s1`, the XC50 amounted to 746 nM.

The compound `Cc1cc(C)cc(OCC(O)CN(Cc2cc(Cl)cc(Cl)c2)C(=O)Nc2ccccc2Cl)c1` (stereo unspecified) came in with an XC50 of 944 nM.

In the case of `COc1ccc2nccc([C@@H](O)CN3CCC(NC(=O)/C=C/c4cccc(NC(C)=O)c4)CC3)c2c1`, the XC50 came out at 963 nM.

`CNC(=O)c1cc(F)c(F)cc1Nc1nc(Nc2cccc(CS(C)(=O)=O)c2)ncc1Cl` had an XC50 of 1020 nM.

Take `O=C(Nc1ccc(OC2CCN(Cc3ccsc3)C2)c(Cl)c1)c1ccco1` (stereo unspecified): the XC50 was determined as 602 nM.

Take `Cc1cc(OCCCNc2nc(NCCc3ccc(O)cc3)nc(N3CCNCC3)n2)c(Cl)c(C)c1Cl`: the XC50 is 956 nM.

Compound `COc1ccccc1N(C)CCNc1cc(C)nc(Nc2ccccc2)n1` yielded an XC50 of 1070 nM.

The compound `O=C1NC(c2ccccc2)C2(CCN(CC(O)COc3cccc4ncccc34)CC2)O1` (stereo unspecified) displayed an XC50 of 743 nM.

Turning to `COc1ccc(Nc2nc(NC3CCCC3)cc(-c3ccc(OC)cc3)n2)cc1`, the XC50 came out at 1030 nM.

The compound `CN(C)c1ccc(CN2CCC(CNC(=O)c3cc(-c4ccccc4F)cs3)C2)cc1` (stereo unspecified) displayed an XC50 of 911 nM.

Regarding `CN1CCN(CC(=O)Nc2ccc(-c3ccc(-c4nc5cc(C(F)(F)F)ccc5[nH]4)s3)cc2)CC1`, the XC50 turned out to be 569 nM.

On to `CN1CCC(Oc2ccc(CN3CC[C@H](NC(=O)c4cccc(C#N)c4)C3)c3ccccc23)C1` (stereo partly specified), for which the XC50 came out at 804 nM.

Compound `Cc1noc(-c2ccc3c(c2)CCN(CCC2CCC(NC(=O)c4cc5ccccc5[nH]4)CC2)CC3)n1` (stereo unspecified) yielded an XC50 of 689 nM.

In turn, `CCN(CC)CCCC(C)Nc1ccnc2ccc(-c3ccccc3)cc12` (stereo unspecified) yielded an XC50 of 652 nM.

`COC(=O)COc1cc(C(=O)NCCCCN2CCC(c3ccc4c(c3OC)CCCC4)CC2)ccc1-c1ccc(Cl)cc1` had an XC50 of 257 nM.

For the compound `CCCN1CCCN(Cc2cccc(NC(=O)c3ccc(-c4ccccc4)cc3)c2)CC1`, the XC50 was 1110 nM.

In the case of `CC(C)N1CCN(C(CN2CCN(CCCOc3ccc4nonc4c3)CC2)c2ccc(F)cc2)CC1` (stereo unspecified), the XC50 amounted to 796 nM.

In turn, `Cc1nnsc1C(=O)Nc1cccc(-c2cccc(-c3nc4cccc(C)c4[nH]3)c2)c1` had an XC50 of 267 nM.

As for `Cc1cccc2nc(-c3cccc(-c4cccc(NC(=O)c5ccoc5)c4)c3)[nH]c12`, the XC50 is 219 nM.

Consider `COc1ccc(CNCc2ccc(-c3ccc(-c4nc5cc(F)ccc5[nH]4)cc3)cc2)cc1`, for which the XC50 was found to be 249 nM.

Consider `CC(C)(CNCc1ccc(C(F)(F)F)cc1)c1nc(-c2ccnc(N)n2)c(-c2ccc(Cl)c(O)c2)[nH]1`, for which the XC50 was found to be 152 nM.

With `Cc1cc2ncn(-c3ccnc(N4CCN(CCCN5CCCC5)CC4)n3)c2cc1C`, the XC50 was 828 nM.

`COc1cc2nc(N3CCC(CNCc4ccc(-c5ccc(C(F)(F)F)cc5)cc4)CC3)nc(N)c2cc1OC` came in with an XC50 of 86.9 nM.

The compound `CCOc1ccc(Br)cc1/C=C/C(=O)Nc1ccc2c(c1)CCCN(C)C2` showed an XC50 of 1050 nM.

`CCCCc1cc(NC2CCN(C)CC2)nc(Nc2ccccc2)n1` registered an XC50 of 658 nM.

Consider `CCc1cn2c3c(cc(C(=O)N[C@@H](Cc4ccccc4)[C@H](O)CNC4CCCCC4)cc13)N(CC)S(=O)(=O)CC2`, for which the XC50 was 31.4 nM.

As for `COCCNCc1cccc(C#Cc2cc3ncnc(Nc4ccc(OCc5cccc(F)c5)c(Cl)c4)c3s2)n1`, the XC50 was 739 nM.

In turn, `Cc1ccc(CNC(=O)[C@H](CC(C)C)Nc2cc(C)nc(NCC3CCCCC3)n2)cc1` gave an XC50 of 926 nM.

On to `C[C@H](Cc1ccc(OCCCOc2ccc(C[C@@H](C)NC[C@H](O)c3cccc(Cl)c3)cc2)cc1)NC[C@H](O)c1cccc(Cl)c1`, for which the XC50 was 780 nM.

On to `Cc1cc(N(C)C)nc(Nc2ccc(NC(=O)c3ccc(F)cc3)cc2)n1`, for which the XC50 is 709 nM.

`CCCN(CCC)C(=O)c1cc(C(=O)N[C@@H](Cc2ccccc2)[C@H](O)CNC2CC2)cc(N2CCCCS2(=O)=O)c1` came in with an XC50 of 156 nM.

In turn, `CCOCn1c(-c2ccccc2)cc2c3c(N)nc(N)nc3ccc21` came in with an XC50 of 186 nM.

`CS(=O)(=O)c1ccc2c(c1)CCN(CCC1CCC(NC(=O)C(=Cc3cccc(C#N)c3)c3ccc(-c4ccccc4)cc3)CC1)CC2` (stereo unspecified): the XC50 worked out at 839 nM.

For `Cc1cc(-c2ccc(CNCc3ccc(F)cc3)cc2)ccc1S(=O)(=O)NCCN1CCCC1`, the XC50 worked out at 719 nM.

In turn, `CC[C@H](C)CNC(=O)c1cncc(-c2ccc(CN(C)C3CCN(C)CC3)cc2)c1` displayed an XC50 of 987 nM.

Compound `CN(C)c1cccc2c1nc(-c1ccco1)n2CCNCc1ccccc1` came in with an XC50 of 814 nM.

The compound `COc1cc(NC(=O)c2nn(CCCN3CCC4(CC3)C(=O)NCN4c3ccccc3)cc2-c2ccc(Cl)c(Cl)c2)cc(OC)c1OC` gave an XC50 of 753 nM.

Regarding `Cc1ccc(C)c(N2CCN(Cc3ccccc3O)CC2)c1`, the XC50 was 940 nM.

With `Cc1ccc(-n2ncc(C(=O)Nc3cc(Cl)cc(Cl)c3)c2C2CCNCC2)cc1C`, the XC50 came to 551 nM.

`CCN(CC)c1ccc(C=CC(=O)NCCN2CCC(N(C)C3CCCCC3C)CC2)cc1` (stereo unspecified): the XC50 amounted to 965 nM.

Turning to `Nc1nccc2ccc(-c3cccc(OCc4ccccc4)c3)cc12`, the XC50 is 289 nM.

Compound `CC(C)(C)OC(=O)NCc1ccc(Nc2nnc(-c3ccc(OCC(=O)NC[C@@H]4CC[C@H]5C[C@@H]4C5(C)C)c([N+](=O)[O-])c3)o2)cc1` had an XC50 of 911 nM.

In turn, `COCCn1c(-c2cccc(Cl)c2)nn(-c2ccc([N+](=O)[O-])cc2C#N)c1=S` gave an XC50 of 178 nM.

With `CC(OC(=O)c1ccc(C(=O)NCC2CC2)cc1)C(C)(C)C` (stereo unspecified), the XC50 stood at 791 nM.
